Consider five compounds from US12448399B2, “Cereblon-based KRAS degrading PROTACs and uses related thereto” (Arvinas Operations, Inc., priority 2023, dated 2025).

This assay deals with T1, KRas-G12D (Homo sapiens, UniProt P01116, G12D).
T1 construct: insert the HiBiT tag onto the N-terminus of one or more of the endogenous KRas alleles; host or cells: AsPC-1 HiBiT-KRasG12D knock-in clone (one tagged allele, two untagged KRasG12D alleles)
Put plainly: HiBiT Degradation Assay (G12D), AsPC-1 HiBiT-KRasG12D cells, 24 hr. The assay is classed as cell-based. The conditions noted are these: for Dmax: ASPC1, AsPC-1 cells, maximum degradation observed; for DC50: AsPC-1 cells. In a few lines:
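Degradation was read after 24 hr compound exposure (0.5% DMSO, 37° C) by Nano-Glo HiBiT lytic luminescence in AsPC-1 cells carrying a HiBiT tag on one of three KRasG12D alleles. Signal relative to DMSO gave DC50 and Dmax by 4-parameter fit; alamar blue fluorescence monitored cytotoxicity.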
For orientation: HiBiT is a short tag that completes a luciferase, so light tracks the accessible tagged protein.

T1 sequence (P01116 1-188 isoform P01116-2 G12D): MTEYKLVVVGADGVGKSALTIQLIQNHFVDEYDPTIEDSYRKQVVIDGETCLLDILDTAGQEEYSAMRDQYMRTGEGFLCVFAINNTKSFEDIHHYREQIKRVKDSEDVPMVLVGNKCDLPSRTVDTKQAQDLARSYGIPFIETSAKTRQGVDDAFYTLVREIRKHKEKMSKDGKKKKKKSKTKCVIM

Take `CCc1c(F)ccc2cc(O)cc(-c3ncc4c(N5CC6CCC(C5)N6)nc(OCCN5CCC(CC6CCN(CC7CCN(c8cccc9c8n(C)c(=O)n9C8CCC(=O)NC8=O)CC7)CC6)CC5)nc4c3F)c12` (stereo not shown) [Compound 172, 3-{4-[4-({4-[(1-{2-[(4-{3,8-diazabicyclo[3.2.1]octan-3-yl}-7-(8-ethyl-7-fluoro-3-hydroxynaphthalen-1-yl)-8-fluoropyrido[4,3-d]pyrimidin-2-yl)oxy]ethyl}piperidin-4-yl)methyl]piperidin-1-yl}methyl)piperidin-1-yl]-3-methyl-2-oxo-2,3-dihydro-1H-1,3-benzodiazol-1-yl}piperidine-2,6-dione]: the Dmax is over 70% and the DC50 was under 5.1 µM.

In turn, `C#Cc1c(F)ccc2cc(O)cc(-c3ncc4c(N5CC6CCC(C5)N6)nc(OCCN5CCN(CC6CCN(CC7CCN(c8ccc9c(c8)n(C)c(=O)n9C8CCC(=O)NC8=O)CC7)CC6)CC5)nc4c3F)c12` (stereo not shown) [Compound 173, 3-{5-[4-({4-[(4-{2-[(4-{3,8-diazabicyclo[3.2.1]octan-3-yl}-7-(8-ethynyl-7-fluoro-3-hydroxynaphthalen-1-yl)-8-fluoropyrido[4,3-d]pyrimidin-2-yl)oxy]ethyl}piperazin-1-yl)methyl]piperidin-1-yl}methyl)piperidin-1-yl]-3-methyl-2-oxo-2,3-dihydro-1H-1,3-benzodiazol-1-yl}piperidine-2,6-dione] yielded a maximal degradation (Dmax) of over 70% and a DC50 of under 5.1 µM.

Consider `C#Cc1c(F)ccc2cc(O)cc(-c3ncc4c(N5CC6CCC(C5)N6)nc(OCCN5CCN(CC6CCN(CC7CCN(c8ccc9c(c8F)CN(C8CCC(=O)NC8=O)C9=O)CC7)CC6)CC5(C)C)nc4c3F)c12` (stereo not shown) [Compound 174, 3-{5-[4-({4-[(4-{2-[(4-{3,8-diazabicyclo[3.2.1]octan-3-yl}-7-(8-ethynyl-7-fluoro-3-hydroxynaphthalen-1-yl)-8-fluoropyrido[4,3-d]pyrimidin-2-yl)oxy]ethyl}-3,3-dimethylpiperazin-1-yl)methyl]piperidin-1-yl}methyl)piperidin-1-yl]-4-fluoro-1-oxo-2,3-dihydro-1H-isoindol-2-yl}piperidine-2,6-dione], for which the Dmax is over 70% and the DC50 was under 5.1 µM.

On to `C#Cc1c(F)ccc2cc(O)cc(-c3ncc4c(N5CC6CCC(C5)N6)nc(OCCN5CCC(CC6CCN(c7ccc8c(c7)n(C(C)C)c(=O)n8C7CCC(=O)NC7=O)CC6)CC5)nc4c3F)c12` (stereo not shown) [Compound 175, 3-(5-{4-[(1-{2-[(4-{3,8-diazabicyclo[3.2.1]octan-3-yl}-7-(8-ethynyl-7-fluoro-3-hydroxynaphthalen-1-yl)-8-fluoropyrido[4,3-d]pyrimidin-2-yl)oxy]ethyl}piperidin-4-yl)methyl]piperidin-1-yl}-2-oxo-3-(propan-2-yl)-2,3-dihydro-1H-1,3-benzodiazol-1-yl)piperidine-2,6-dione], for which the Dmax was over 70% and the DC50 is under 5.1 µM.

Turning to `C#Cc1c(F)ccc2cc(O)cc(-c3ncc4c(N5CC6CCC(C5)N6)nc(OC[C@@H]5CC[C@@H](CN6CCN(c7ccc8c(c7)n(C(C)C)c(=O)n8C7CCC(=O)NC7=O)CC6)N5C)nc4c3F)c12` (stereo partly drawn) [Compound 176, 3-[5-(4-{[(2S,5S)-5-{[(4-{3,8-diazabicyclo[3.2.1]octan-3-yl}-7-(8-ethynyl-7-fluoro-3-hydroxynaphthalen-1-yl)-8-fluoropyrido[4,3-d]pyrimidin-2-yl)oxy]methyl}-1-methylpyrrolidin-2-yl]methyl}piperazin-1-yl)-2-oxo-3-(propan-2-yl)-2,3-dihydro-1H-1,3-benzodiazol-1-yl]piperidine-2,6-dione], the Dmax is over 70% and the DC50 is under 5.1 µM.

For orientation: Dmax means the greatest extent of degradation seen. A high value points to a fuller loss of target. Broadly, the DC50 is the concentration giving 50% degradation.
